This is an account of results in patent US8697708B2, “Azabenzothiazole compounds, compositions and methods of use” (F. Hoffmann-La Roche AG, priority 2010, dated 2014).

A word on the Ki: it is a measure of affinity in units of concentration, obtained from inhibition or displacement. Read a high Ki as lower affinity.

Structures are written as SMILES. Where a name gives a salt, the structure may show the parent alone.

TYK2, sequence (P29597 897-1176): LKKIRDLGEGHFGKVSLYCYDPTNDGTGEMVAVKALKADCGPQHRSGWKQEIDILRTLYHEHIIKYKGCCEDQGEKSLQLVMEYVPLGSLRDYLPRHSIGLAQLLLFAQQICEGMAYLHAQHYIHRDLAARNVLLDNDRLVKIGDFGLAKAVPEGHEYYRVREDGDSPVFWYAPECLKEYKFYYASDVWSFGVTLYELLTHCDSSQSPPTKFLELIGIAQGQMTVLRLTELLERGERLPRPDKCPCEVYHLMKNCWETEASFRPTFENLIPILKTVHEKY

The target of the assay is TYK2 (Homo sapiens (Human), UniProt P29597). Put plainly: JAK1, JAK2 and TYK2 Inhibition Assay Protocol (Example A): TYK2 kinase domain, Caliper LabChip peptide phosphorylation. To be noted: isolated TYK2 kinase domain, 1 nM enzyme, 25 μM ATP, Morrison tight binding model. The class given is biochemical. How it is done:
The activity of the isolated JAK1, JAK2 or TYK2 kinase domain was measured by monitoring phosphorylation of a peptide derived from JAK3 (Val-Ala-Leu-Val-Asp-Gly-Tyr-Phe-Arg-Leu-Thr-Thr) fluorescently labeled on the N-terminus with 5-carboxyfluorescein using the Caliper LabChip technology (Caliper Life Sciences, Hopkinton, Mass.). […] Reactions were incubated at 22° C. in 384-well polypropylene microtiter plates for 30 minutes and then stopped by addition of 25 μL of an EDTA containing solution (100 mM Hepes pH 7.2, 0.015% Brij-35, 150 mM EDTA), resulting in a final EDTA concentration of 50 mM. After termination of the kinase reaction, the proportion of phosphorylated product was determined as a fraction of total peptide substrate using the Caliper LabChip 3000 according to the manufacturer's specifications. Ki values were then determined using the Morrison tight binding model. Morrison, J. F., Biochim. Biophys. Acta. 185:269-296 (1969); William, J. W. and Morrison, J. F., Meth. Enzymol., 63:437-467 (1979).
The molecule `O=C(Nc1nccc2nc(-c3c(Cl)cccc3Cl)sc12)C1CC1` [Example 2, N-(2-(2,6-Dichlorophenyl)thiazolo[5,4-c]pyridin-4-yl)cyclopropanecarboxamide] gave an inhibitory constant (Ki) of 0.5 nM.
The molecule `O=C(CO)Nc1nccc2nc(-c3c(Cl)cccc3Cl)sc12` [Example 10, N-(2-(2,6-Dichlorophenyl)thiazolo[5,4-c]pyridin-4-yl)-2-hydroxyacetamide] returned a Ki of 23 nM.
Next, `O=C(Nc1nccc2nc(-c3c(F)cccc3Cl)sc12)NC1CC1` [Example 16, 1-(2-(2-Chloro-6-fluorophenyl)thiazolo[5,4-c]pyridin-4-yl)-3-cyclopropylurea]: 1.4 nM.
Then `OCc1ccnc(Nc2nccc3nc(-c4c(Cl)cccc4Cl)sc23)c1` [Example 18, (2-(2-(2,6-dichlorophenyl)thiazolo[5,4-c]pyridin-4-ylamino)pyridin-4-yl)methanol], with 0.3 nM; and `Cc1cc(Nc2nccc3nc(-c4c(Cl)cc(CO)cc4Cl)sc23)ncn1` [Example 22, {3,5-Dichloro-4-[4-(6-methyl-pyrimidin-4-ylamino)-thiazolo[5,4-c]pyridin-2-yl]-phenyl}-methanol], with 1 nM.
Next, `O=C(Nc1ncnc2nc(-c3c(Cl)cccc3Cl)sc12)C1CC1` [Example 24, N-(2-(2,6-dichlorophenyl)thiazolo[4,5-d]pyrimidin-7-yl)cyclopropanecarboxamide]: 6.2 nM.
Molecule `Cc1cc(Nc2nccc3nc(-c4ccccc4Cl)sc23)nc(C)n1` [Example 56, 2-(2-chlorophenyl)-N-(2,6-dimethylpyrimidin-4-yl)thiazolo[5,4-c]pyridin-4-amine] registered a Ki of 8.6 nM.
Next, `CCc1cc(Nc2nccc3nc(-c4c(Cl)cc(C(N)=O)cc4Cl)sc23)ncn1` [Example 129, 3,5-Dichloro-4-[4-(6-ethylpyrimidin-4-ylamino)thiazolo[5,4-c]pyridin-2-yl]-benzamide]: 1.6 nM; `Cc1cc(Nc2nccc3nc(-c4c(Cl)cc(C5CC5)cc4Cl)sc23)ncn1` [Example 138, [2-(2,6-Dichloro-4-cyclopropylphenyl)thiazolo[5,4-c]pyridin-4-yl]-(6-methylpyrimidin-4-yl)-amine]: 4.1 nM; `N#Cc1cc(Cl)c(-c2nc3c(F)cnc(NC(=O)C4CC4)c3s2)c(Cl)c1` [Example 213, Cyclopropane-carboxylic acid [2-(2,6-dichloro-4-cyano-phenyl)-7-fluorothiazolo[5,4-c]pyridin-4-yl]-amide]: 1.5 nM.
Consider `N#Cc1cnc(Nc2cc(N)ncn2)c2sc(-c3c(F)cccc3Cl)nc12` [Example 223, 4-(6-aminopyrimidin-4-ylamino)-2-(2-chloro-6-fluorophenyl) thiazolo[5,4-c] pyridine-7-carbonitrile], for which the affinity, expressed as Ki, was 0.4 nM.
As to `N#Cc1cccc(F)c1-c1nc2c(C#N)cnc(Nc3cc(N)ncn3)c2s1` [Example 224, 4-(6-aminopyrimidin-4-ylamino)-2-(2-cyano-6-fluorophenyl) thiazolo[5,4-c] pyridine-7-carbonitrile], the inhibitory constant (Ki) was 0.3 nM.
Turning to `Cc1cc(Nc2nccc3nc(-c4c(C#N)cc(C#N)cc4C#N)sc23)nc(C)n1` [Example 227, 2-(4-(2,6-dimethylpyrimidin-4-ylamino)thiazolo[5,4-c]pyridin-2-yl)benzene-1,3,5-tricarbonitrile], the affinity, expressed as Ki, was 0.8 nM.
Regarding `Cc1nc(CO)cc(Nc2nccc3nc(-c4c(Cl)cccc4C#N)sc23)n1` [Example 236, 3-Chloro-2-[4-(6-hydroxy-methyl-2-methyl-pyrimidin-4-ylamino)-thiazolo[5,4-c]pyridin-2-yl]-benzonitrile hydrochloride salt], the affinity corresponds to a Ki of 0.5 nM.
